In patent US20220033405A1, “PHARMACEUTICAL COMPOSITION FOR PREVENTING OR TREATING CANCER CONTAINING PLK1 INHIBITOR AS ACTIVE INGREDIENT” (NATIONAL CANCER CENTER, priority 2018, published 2022):

What was measured:
[1] = system: HepG2 human liver cancer cells; assay: Reactivity of M2 variants in HepG2; format: cell-based
Protocol: (§1) To examine the ability of the compound to inhibit the growth of the breast cancer cell line, the compounds was treated at each indicated μM concentration 1 and 3 days after cell attachment, and the control was treated with a 0.1% solvent (DMSO). After another two days, the cell lines that were attached to the culture plate and grew were rinsed with 1×PBS and treated with 4% paraformaldehyde at room temperature for 10 minutes to fix the cells. Then, after cells were rinsed twice with PBS, the fixed cells were treated with a 0.5% Triton X-100 solution and reacted at room temperature for 15 minutes, rinsed another three times with PBS, and then treated with a DAPI reagent at 0.5 μg/ml, and reacted at 37° C. for 10 minutes to stain the cell nuclei. After the cells were additionally rinsed once with PBS, cells stained with DAPI were photographed by Cytation 3, and the resulting images were analyzed with Gen5 software (Biotek, USA). Meanwhile, cells that grew in a floating manner without being attached to the culture plate were treated with a 4% paraformaldehyde solution, reacted at room temperature for 10 minutes to fix the cells, and then photographed in a bright field by Cytation3, and the resulting images were analyzed by Gen5 software (Biotek, USA).
To analyze the ability to inhibit the growth of liver cancer cell lines, 6.6×10^3 HepG2 cells per well, 1×10^3 cells of each of Hep3B, SNU-475, and SNU-449 per well, and 2×10^3 SNU-387 cells per well were aliquoted in a 96-well plate, cultured in the same manner as described above, treated with Compound 2 (M2), Compound 3 (M4), Compound 4 (M21), Compound 5 (M23), and Compound 6 (M25), and then the ability to inhibit the growth of cells was analyzed.

HepG2 cell = assay: Apoptosis by annexin V-FITC / PI flow cytometry; format: cell-based; settings: HepG2, 3 days; M2 20 or 100 μM; BI2536 20 or 100 nM
Protocol: To analyze the pattern of apoptosis by exposure to M2, HepG2 cell, a hepatocellular carcinoma cell line, were treated with 20 or 100 μM M2 and 20 or 100 nM BI2536 for 3 days. The apoptosis was detected by annexin V-fluorescein isothiocyanate (annexin V-FITC) and propidium iodide (PI) staining of necrotic and apoptosis cells. First, cells were harvested and washed once with PBS. The cells were then resuspended in a 100 μl binding buffer containing 4 μl of Annexin V (BD, 51-65874X) and PI (BD, 51-66211E). The cells were stained at 37° C. for 15 minutes in the dark and then analyzed using FACSan (BD, San Jose, Calif.). Data was analyzed using CELLQuest software (BD).

MDA-MB-468 cells = assay: Cancer cell growth inhibition (DAPI nuclei count), breast cancer line; format: cell-based; settings: treated 1 and 3 days after attachment
Protocol: For this purpose, experiments were performed using liver cancer, breast cancer, hematologic cancer, cervical cancer, and prostate cancer cell lines, a murine liver cancer cell line HEPA 1-6 and a breast cancer cell line MDA-MB-468 were cultured in a DMEM medium supplemented with 10% fetal bovine serum (FBS) and 1% penicillin/streptomycin, the other cell lines were cultured in a RPMI1640 medium supplemented with the same additives, and the cell lines were used in the experiment.
To examine the ability of the compound to inhibit the growth of the breast cancer cell line, the compounds was treated at each indicated μM concentration 1 and 3 days after cell attachment, and the control was treated with a 0.1% solvent (DMSO). […] After the cells were additionally rinsed once with PBS, cells stained with DAPI were photographed by Cytation 3, and the resulting images were analyzed with Gen5 software (Biotek, USA). Meanwhile, cells that grew in a floating manner without being attached to the culture plate were treated with a 4% paraformaldehyde solution, reacted at room temperature for 10 minutes to fix the cells, and then photographed in a bright field by Cytation3, and the resulting images were analyzed by Gen5 software (Biotek, USA). […]

human liver cancer PDX = assay: Orthotopic xenograft model using human liver cancer PDX; format: in vivo, BalB/C nude mice; settings: M2 40 mg/kg i.p. once every two days, 11 treatments for 3 weeks
Protocol: A cancer tissue isolated from human liver cancer was transplanted into skin tissues of BalB/C nude mice and the skin tissues were grown into cancer tissues, so that a tissue established as a PDX model was used, uniformly cut into 1 mm^3, and transplanted into the right median lobe of the liver by excising the abdomen within 1 cm. Sm all spots were confirmed on the MRI image about 10 days after transplanting the liver cancer tissue into 20 BalB/C nude mice by the above method, so that rodents with well-established liver cancer were divided into 3 groups (see FIGS. 22A, 22B, and 22C), a solvent control (DMSO), a hit (M2) material at 40 mg/kg, and BI2536 at 4 mg/kg were injected into the abdominal cavity once every two days using less than 1.5% DMSO as a solvent (vehicle), and once a week, MRI images were used to select (follow up) rodents with constant tissue growth. Then, when the rapidly growing cancer tissue was 1 cm or less, the cancer tissue was observed after sacrificing the mice (11 treatments for 3 weeks).

liver cancer cell lines = assay: Mixed treatment of Compound 2 (M2) and BI2536; format: cell-based; settings: mixture of Compound 2 (M2) at a low concentration and BI2536
[2] = system: JIMT1 human breast cancer cells; assay: Cancer cell growth inhibition, M2 variants in JIMT1; format: cell-based
Protocol: as §1

[3] = system: NCAPG2 in HEK293 cell line; assay: Staining of NCAPG2 in chromosome arm and kinetochore; format: cell-based; settings: HEK293, 50 uM, 24 hours, compared to the control
[4] = system: HepG2 orthotopic xenograft; assay: Liver cancer orthotopic xenograft model (HepG2), 19 injections; format: in vivo, BalB/c nude mice; settings: M2 9.1 mg/kg
Protocol: 5×10^6 HepG2 cells, which are a hepatocellular carcinoma cell line, were injected into the back skin of BalB/c nude mice, and when a sufficient cancer tissue was formed about 3 weeks later, the tissue was removed, uniformly cut into 1 mm^3, and transplanted into the right median lobe of the liver by excising the abdomen within 1 cm.
The doses of 9.1 mg/kg of M2 and 1 mg/kg of BI2536 were selected based on the present inventor's previous in vitro experiments on HCC cells. Administration began 7 days after cell injection, and an equivalent amount of DMSO for the highest concentration of drug was used as a solvent control for each experiment. Each drug was injected a total of 19 injections based on 5 times/week.

SNU-449 = assay: Cell cycle by flow cytometry, phospho-histone H3 (Ser10) staining; format: cell-based; settings: M2 20, 40, 80 μM, BI2536 20 nM
Protocol: Flow cytometry equipment was used to confirm the effect on the cell cycle in the case of treatment with Compound 2 (M2). SNU-449, which is one of the liver cancer cell lines, were treated with Compound 2 (M2) at each of concentrations of 20, 40, and 80 μM after 1 day and 3 days, and were harvested after another 2 days.
Furthermore, it was intended to more specifically stain a cell population that stopped in the metaphase of cell division using a phospho-histone H3 (Ser10) antibody capable of specifically staining only the cells that stopped in the metaphase of cell division. As a positive control, cells were treated with BI2536 known as a PLK1 kinase inhibitor at 20 nM and used to observe cells in the metaphase of cell division and an increase in the G2/M phase.

PLK1 = PLK1 position in the cell (r-tubulin, PLK1, DAPI staining); format: cell-based; settings: middle stage of cell division

SMILES: Cn1c2nc(=O)[nH]c(=O)c-2nc2ccccc21 [Compound 2, 10-methyl-2H,3H,4H,10H-benzo[g]pteridine-2,4-dione]
- areas of liver cancer cells [1]: remarkably reduced in a dose-dependent manner
- apoptosis cells (HepG2 cell): apoptosis cells were increased
- apoptosis with increasing dose (HepG2 cell): apoptosis was increased in a dose-dependent manner
- number of cells (MDA-MB-468 cells): the number of cells was remarkably reduced in proportion to the treatment concentration
- volume of the cancer tissue (human liver cancer PDX): reduced remarkably
- weight of the cancer tissue (human liver cancer PDX): reduced remarkably
- inhibition of cancer cells by mixed treatment (liver cancer cell lines): the cooperative ability of BI2536 to inhibit cancer cells could be observed
- number of cancer cells [2]: remarkably reduced the number of cancer cells in a dose-dependent manner
- degree of staining of NCAPG2 in the chromosome arm and kinetochore [3]: reduced
- progression of the HCC xenograft calculated by the growth inhibition index ([4]; BI2536 1 mg/kg, 19 injections): suppressed the progression of the HCC xenograft
- growth of tumor cells (macroscopic morphology, MRI) ([4]; BI2536 1 mg/kg, 19 injections, 5 times/week): the growth of tumor cells was suppressed
- mitotic index ([4]; histological staining, compared to the control): decreased
- proportion of polyploid cells (SNU-449): not increased at all the treated concentrations
- proportion of phospho-histone H3-positive cells (SNU-449; compared to CT): decreased
- position of PLK1 (PLK1): difficult for PLK1 to be located in a normal position
- r-tubulin located in the centrosome (staining / position) (PLK1): weakly stained
